Source: patent publication US20230000996A1, “RAPAFUCIN DERIVATIVE COMPOUNDS AND METHODS OF USE THEREOF” (The Johns Hopkins University, priority 2019, published 2023)

test: Nucleoside uptake, single concentration assay (Rel.Uptake); cell line indicated in each table; type: cell-based; details: 293T cells; single concentration; response relative to DMSO
Description: Nucleoside Uptake Assay (uptake). Nuceloside uptake assays were performed with using 3H-Thymidine as described in Guo et al. (2018) Nat. Chem. 11:254-63. Specific cell lines are indicated in each assay and cultured in complete growth media. Activity is scored according to the IC50 values relative to DMSO control. “Low” indicates an IC50 greater than 600 nM, “Medium” indicates an IC50 between 300 nM and 600 nM “High” indicates an IC50 less than 300 nM. “Rel.Uptake” refers to uptake activity characterization relative to a single concentration assay. “Low” indicates a response greater than 0.6 times the activity relative to DMSO, “Medium” indicates a response between 0.6 and 0.3 times the activity relative to DMSO, “High” indicates a response less than 0.3 times the activity relative to DMSO.

Question: Which “Rel. Uptake, 293T” value does the source give for `COc1ccc(CC[C@H]2OC(=O)[C@@H]3CCCCN3C(=O)C(=O)C(C)(C)COC(=O)C=CCCN(C)C(=O)[C@H](CC(C)C)N(C)C(=O)[C@H]3CCCN3C(=O)[C@H](Cc3ccc(OCc4ccccc4)cc3)NC(=O)C(c3ccccc3)NC(=O)CCC(=O)Nc3cccc2c3)cc1OC` (some centres unmarked) [Compound 1082] here?
Answer: The value was “low”.

same assay, conditions: nucleoside uptake, single concentration assay, 293T cells, response relative to DMSO

Question: With `COc1cc(O)c(CC[C@H]2OC(=O)[C@@H]3CCCCN3C(=O)C(=O)C(C)(C)COC(=O)C=CCCN(C)C(=O)[C@@H](Cc3ccccc3)NC(=O)CN(C)C(=O)[C@@H](Cc3ccccc3)NC(=O)[C@H](Cc3ccc(O)cc3)N(C)C(=O)COc3cccc2c3)cc1OC` [Compound 1568] as the compound, how does the “Rel. Uptake, 293T” value read?
Answer: Its value is “low”.

Question: Which “Rel. Uptake, 293T” value does the source give for `COc1ccc(CC[C@H]2OC(=O)[C@@H]3CNCCN3C(=O)C(=O)C(C)(C)COC(=O)C=CCCN(C)C(=O)[C@@H](Cc3ccccc3)NC(=O)CN(C)C(=O)[C@@H](Cc3ccccc3)NC(=O)[C@H](Cc3ccc(O)cc3)N(C)C(=O)COc3cccc2c3)cc1OC` [Compound 1573] here?
Answer: The value was “low”.

Question: For `COc1ccc(CC[C@H]2OC(=O)[C@@H]3CCCCN3C(=O)C(=O)C(C)(C)COC(=O)C=CCCN(C)C(=O)[C@H](CC(C)C)N(C)C(=O)[C@H]3CCCN3C(=O)[C@H](Cc3ccc(CNC(=O)c4ccccc4)cc3)NC(=O)[C@H](c3ccccc3)NC(=O)CCC(=O)Nc3cccc2c3)cc1OC` [Compound 1585], which “Rel. Uptake, 293T” value is on record?
Answer: Its value is “High (“High” indicates a response less than 0.3 times the activity relative to DMSO)”.

Question: Which “Rel. Uptake, 293T” value does the source give for `COc1ccc(CC[C@H]2OC(=O)[C@@H]3CCCCN3C(=O)C(=O)C(C)(C)COC(=O)C=CCCN(C)C(=O)[C@@H](Cc3ccccc3)NC(=O)CN(C)C(=O)[C@@H](Cc3ccccc3)NC(=O)[C@H](Cc3ccc(O)cc3)N(C)C(=O)COc3ccc(F)c2c3)cc1OC` [Compound 1575] here?
Answer: The value was “low”.

Question: Which “Rel. Uptake, 293T” value does the source give for `COc1cc(CC[C@H]2OC(=O)[C@@H]3CCCCN3C(=O)C(=O)C(C)(C)COC(=O)C=CCCN(C)C(=O)[C@@H](Cc3ccccc3)NC(=O)CN(C)C(=O)[C@@H](Cc3ccccc3)NC(=O)[C@H](Cc3ccc(O)cc3)N(C)C(=O)COc3cccc2c3)cc(O)c1OC` [Compound 1567] here?
Answer: The value was “medium”.

Question: Which “Rel. Uptake, 293T” value does the source give for `COc1ccc(CC[C@H]2OC(=O)[C@@H]3CCCCN3C(=O)C(=O)C(C)(C)COC(=O)C=CCCN(C)C(=O)[C@@H](Cc3ccccc3)NC(=O)CN(C)C(=O)[C@@H](Cc3ccccc3)NC(=O)[C@H](Cc3ccc(O)cc3)N(C)C(=O)COc3cccc2c3F)cc1OC` [Compound 1579] here?
Answer: The value was “medium”.

Question: With `COc1ccc(CC[C@H]2OC(=O)[C@@H]3CCCCN3C(=O)C(=O)C(C)(C)COC(=O)C=CCCN(C)C(=O)[C@H](CC(C)C)N(C)C(=O)[C@H]3CCCN3C(=O)[C@H](Cc3ccc(NC(=O)Cc4cccnc4)cc3)NC(=O)[C@H](c3ccccc3)NC(=O)CCC(=O)Nc3cccc2c3)cc1OC` [Compound 1589] as the compound, how does the “Rel. Uptake, 293T” value read?
Answer: Its value is “Low (“Low” indicates a response greater than 0.6 times the activity relative to DMSO)”.

Question: Which “Rel. Uptake, 293T” value does the source give for `COc1ccc(CC[C@H]2OC(=O)[C@@H]3CCCCN3C(=O)C(=O)C(C)(C)COC(=O)C=CCCN(C)C(=O)[C@H](CC(C)C)N(C)C(=O)[C@H]3CCCN3C(=O)[C@H](Cc3cccc(NC(C)=O)c3)NC(=O)[C@H](c3ccccc3)NC(=O)CCC(=O)Nc3cccc2c3)cc1OC` [Compound 1588] here?
Answer: Its value is “High (“High” indicates a response less than 0.3 times the activity relative to DMSO)”.

Question: For `COc1ccc(CC[C@H]2OC(=O)[C@@H]3CCCCN3C(=O)C(=O)C(C)(C)COC(=O)C=CCCN(C)C(=O)[C@@H](c3ccccc3)NC(=O)[C@H](Cc3ccc(OP(C)(C)=O)cc3)NC(=O)[C@H]3CCCN3C(=O)[C@H](CC(C)C)N(C)C(=O)COc3cccc2c3)cc1OC` [Compound 1520], which “Rel. Uptake, 293T” value is on record?
Answer: Its value is “low”.

Question: For `CCCC[C@H]1C(=O)N[C@@H](Cc2ccc3ccccc3c2)C(=O)N(C)[C@@H](COC(C)(C)C)C(=O)NCC(=O)N(C)CCC=CC(=O)OCC(C)(C)C(=O)C(=O)N2CCCC[C@H]2C(=O)O[C@H](CCc2ccc(OC)c(OC)c2)c2cccc(c2F)OCC(=O)N1C` [Compound 1563], which “Rel. Uptake, 293T” value is on record?
Answer: The value was “high”.
